This passage reports Ki, EC50 and Efficacy results from ChEMBL document CHEMBL1149945, “Synthesis and structure-activity relationships of potent retinoid X receptor ligands” (Bioorg Med Chem Lett, 1997).

The target in assay [1] is T1, Retinoic acid receptor RXR-gamma (Mus musculus, UniProt P28705).
T1 sequence (P28705 whole entry): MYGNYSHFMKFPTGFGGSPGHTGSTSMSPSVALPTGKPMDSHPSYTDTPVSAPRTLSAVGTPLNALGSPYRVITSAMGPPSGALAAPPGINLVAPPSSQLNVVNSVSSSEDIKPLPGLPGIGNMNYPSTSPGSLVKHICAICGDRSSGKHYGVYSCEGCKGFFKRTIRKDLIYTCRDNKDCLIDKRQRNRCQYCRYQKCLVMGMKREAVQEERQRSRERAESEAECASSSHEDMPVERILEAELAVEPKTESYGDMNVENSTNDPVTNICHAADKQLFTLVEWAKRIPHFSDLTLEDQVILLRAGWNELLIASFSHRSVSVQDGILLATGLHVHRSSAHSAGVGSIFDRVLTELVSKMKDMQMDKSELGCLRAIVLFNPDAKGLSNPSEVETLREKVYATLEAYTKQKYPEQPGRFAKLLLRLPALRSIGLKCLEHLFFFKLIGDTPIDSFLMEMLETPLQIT
The experiment in a line: Inhibition of [3H]9-cis-RA binding to Retinoid X receptor RXR gamma.

For assay [2], the target named is T2, Retinoic acid receptor RXR-alpha (Homo sapiens, UniProt P19793).
T2 sequence (P19793 whole entry): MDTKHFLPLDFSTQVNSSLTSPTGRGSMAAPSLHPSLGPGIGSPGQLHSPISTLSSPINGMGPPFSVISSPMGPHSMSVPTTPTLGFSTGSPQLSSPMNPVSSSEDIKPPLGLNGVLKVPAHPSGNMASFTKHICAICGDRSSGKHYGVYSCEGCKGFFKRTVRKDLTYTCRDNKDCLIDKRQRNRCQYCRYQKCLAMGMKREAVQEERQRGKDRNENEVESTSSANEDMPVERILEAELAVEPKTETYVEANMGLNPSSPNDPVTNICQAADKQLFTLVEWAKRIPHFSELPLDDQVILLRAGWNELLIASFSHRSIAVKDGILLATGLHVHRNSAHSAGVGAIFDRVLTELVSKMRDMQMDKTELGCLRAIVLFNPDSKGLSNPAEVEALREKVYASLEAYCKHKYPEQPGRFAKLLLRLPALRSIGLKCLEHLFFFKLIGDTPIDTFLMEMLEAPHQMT
The experiment in a line: Effective potency in transcriptional activation assay in CV-1 cells expressing Retinoid X receptor RXR alpha. It is filed as functional, cell-based.

In assay [3] the target is T3, Retinoic acid receptor RXR-beta (Mus musculus) (UniProt P28704).
T3 sequence (whole entry): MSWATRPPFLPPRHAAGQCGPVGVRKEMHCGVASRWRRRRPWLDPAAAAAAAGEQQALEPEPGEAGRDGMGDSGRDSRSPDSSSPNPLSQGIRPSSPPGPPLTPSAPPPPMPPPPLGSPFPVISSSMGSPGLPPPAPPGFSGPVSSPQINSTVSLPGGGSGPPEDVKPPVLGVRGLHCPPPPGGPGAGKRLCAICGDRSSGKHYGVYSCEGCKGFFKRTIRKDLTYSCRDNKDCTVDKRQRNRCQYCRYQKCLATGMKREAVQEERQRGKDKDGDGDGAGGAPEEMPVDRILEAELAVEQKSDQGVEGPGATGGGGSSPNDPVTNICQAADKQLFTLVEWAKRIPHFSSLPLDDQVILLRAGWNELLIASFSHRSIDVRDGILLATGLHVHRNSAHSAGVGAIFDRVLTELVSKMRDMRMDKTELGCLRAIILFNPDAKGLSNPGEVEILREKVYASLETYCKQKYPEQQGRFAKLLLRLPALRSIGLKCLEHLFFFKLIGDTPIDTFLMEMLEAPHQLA
The experiment in a line: Percent efficacy for Retinoid X receptor RXR beta in CV-1 cell transcriptional activation assay. Type of assay: functional, cell-based.

Assay [4] deals with T4, Retinoic acid receptor alpha (Homo sapiens, UniProt P10276).
T4 sequence (P10276 whole entry): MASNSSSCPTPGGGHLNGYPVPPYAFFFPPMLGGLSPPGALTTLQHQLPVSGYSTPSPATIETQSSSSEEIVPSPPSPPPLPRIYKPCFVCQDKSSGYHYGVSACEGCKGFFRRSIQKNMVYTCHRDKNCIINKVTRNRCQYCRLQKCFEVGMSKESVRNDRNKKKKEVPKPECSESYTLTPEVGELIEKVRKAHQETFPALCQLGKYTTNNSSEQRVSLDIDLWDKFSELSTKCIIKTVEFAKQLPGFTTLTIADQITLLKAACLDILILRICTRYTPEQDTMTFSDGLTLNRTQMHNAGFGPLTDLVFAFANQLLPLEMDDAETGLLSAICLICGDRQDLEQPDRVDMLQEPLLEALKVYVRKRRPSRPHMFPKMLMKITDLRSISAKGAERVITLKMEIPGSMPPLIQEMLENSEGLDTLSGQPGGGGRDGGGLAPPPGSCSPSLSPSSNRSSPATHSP
In words: Effective potency in transcriptional activation assay in CV-1 cells expressing retinoic acid receptor RAR alpha; Not active. It is filed as functional, cell-based.

The target of assay [5] is T5, Retinoic acid receptor beta (Homo sapiens, UniProt P10826).
T5 sequence (P10826 whole entry): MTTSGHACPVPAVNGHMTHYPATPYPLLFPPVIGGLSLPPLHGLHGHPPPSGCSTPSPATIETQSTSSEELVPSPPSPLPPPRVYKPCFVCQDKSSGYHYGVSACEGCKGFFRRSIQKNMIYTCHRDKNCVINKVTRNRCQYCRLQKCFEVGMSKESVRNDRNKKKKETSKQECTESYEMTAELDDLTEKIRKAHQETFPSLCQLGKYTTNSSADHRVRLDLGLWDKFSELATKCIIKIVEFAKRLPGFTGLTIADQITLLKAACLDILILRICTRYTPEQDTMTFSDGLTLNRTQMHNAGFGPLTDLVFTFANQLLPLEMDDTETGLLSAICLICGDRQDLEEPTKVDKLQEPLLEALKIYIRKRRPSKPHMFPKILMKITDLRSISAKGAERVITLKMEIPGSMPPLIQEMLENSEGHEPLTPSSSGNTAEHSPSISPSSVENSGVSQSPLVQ
To be noted: cv-1.

Assay [6] addresses T6, Retinoic acid receptor gamma (Homo sapiens, UniProt P13631).
T6 sequence (P13631 whole entry): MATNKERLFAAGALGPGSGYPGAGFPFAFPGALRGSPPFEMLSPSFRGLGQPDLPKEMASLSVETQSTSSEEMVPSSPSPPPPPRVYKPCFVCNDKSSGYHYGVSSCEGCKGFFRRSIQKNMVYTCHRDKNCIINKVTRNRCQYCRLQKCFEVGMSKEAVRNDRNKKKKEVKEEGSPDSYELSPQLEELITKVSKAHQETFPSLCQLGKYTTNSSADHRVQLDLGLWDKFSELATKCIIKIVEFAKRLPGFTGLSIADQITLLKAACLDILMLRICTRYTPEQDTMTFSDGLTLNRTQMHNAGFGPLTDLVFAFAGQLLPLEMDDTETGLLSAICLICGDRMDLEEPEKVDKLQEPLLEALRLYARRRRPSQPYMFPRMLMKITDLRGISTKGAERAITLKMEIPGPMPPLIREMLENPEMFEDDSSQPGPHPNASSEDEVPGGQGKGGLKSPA
To be noted: cv-1.

For assay [7], the target named is T4, Retinoic acid receptor alpha. The experiment in a line: Inhibition of [3H]ATRA binding to retinoic acid receptor RAR alpha.
Assay [8] concerns the target T2, Retinoic acid receptor RXR-alpha. The experiment in a line: Inhibition of [3H]9-cis-RA binding to Retinoid X receptor RXR alpha.
The target of assay [9] is T7, Retinoic acid receptor RXR-gamma (Mus musculus) (UniProt P28705).
T7 sequence (whole entry): T1 sequence (P28705 whole entry)
In words: Percent efficacy for Retinoid X receptor RXR gamma in CV-1 cell transcriptional activation assay. It is filed as cell-based.

Assay [10] deals with T8, Retinoic acid receptor RXR-beta (Mus musculus, UniProt P28704).
T8 sequence (P28704 whole entry): T3 sequence (whole entry)
In words: Effective potency in transcriptional activation assay in CV-1 cells expressing Retinoid X receptor RXR beta. Type of assay: functional, cell-based.

Assay [11] addresses T8, Retinoic acid receptor RXR-beta. In words: Inhibition of [3H]9-cis-RA binding to Retinoid X receptor RXR beta.
Assay [12] concerns the target T1, Retinoic acid receptor RXR-gamma. The experiment in a line: (§1) Effective potency in transcriptional activation assay in CV-1 cells expressing Retinoid X receptor RXR gamma. It is filed as functional, cell-based.
Assay [13] concerns the target T5, Retinoic acid receptor beta. The experiment in a line: Inhibition of [3H]ATRA binding to retinoic acid receptor RAR beta.
Assay [14] deals with T6, Retinoic acid receptor gamma. The experiment in a line: Inhibition of [3H]-ATRA binding to Retinoic acid receptor RAR gamma.
The target of assay [15] is T5, Retinoic acid receptor beta. In words: Effective potency in transcriptional activation assay in CV-1 cells expressing retinoic acid receptor RAR beta. It is filed as functional, cell-based.
The target of assay [16] is T6, Retinoic acid receptor gamma. The experiment in a line: Effective potency in transcriptional activation assay in CV-1 cells expressing retinoic acid receptor RAR gamma. Type of assay: functional, cell-based.
The target of assay [17] is T1, Retinoic acid receptor RXR-gamma. The description is as §1. It is filed as cell-based.

What is called Ki is a dissociation constant, usually derived from enzyme kinetics or from competition with a known ligand. A high value points to a looser hold on the target. By EC50 is commonly meant the midpoint of the concentration-response curve. Higher therefore signals a need for much substance. For the molecule `C=C1C[C@@H](/C=C/C(C)=C/C(=O)O)[C@@H](c2ccc3c(c2)C(C)(C)CCC3(C)C)C1`, the Ki is 161 nM in assay [1]; over 1000 nM in assay [7]; 66 nM in [8]; 556 nM in [11]; over 1000 nM in assay [13]; over 1000 nM in assay [14]. The EC50 in assay [2] is 169 nM; in [4], “Not Active”; in assay [5] it was “Not Active”; in [6] it was “Not Active”; in assay [10], 220 nM; in assay [12], 204 nM. Besides, the Efficacy in assay [3] was found to be 369%; in assay [9], 90%.
As for `CC(/C=C/[C@@]1(C)CCCC1c1ccc2c(c1)C(C)(C)CCC2(C)C)=C\C(=O)O` (single isomer, unassigned), the EC50 in assay [15] was 809 nM; in [2], 7 nM; in [4], “Not Active”; in assay [10], 14 nM; in [16], 1780 nM; in assay [17], 16 nM. Moreover, the Ki in assay [1] was 7 nM; in assay [7], over 1000 nM; in [8], 4 nM; in assay [11], 10 nM; in assay [13], over 1000 nM; in assay [14], over 1000 nM. The results for the Efficacy in assay [3] and in assay [9] were 110% and 72%, respectively.
